In patent US9067896B2, “Crystalline forms of 3-(2,6-dichloro-3,5-dimethoxy-phenyl)-1-{6-[4-(4-ethyl-piperazin-1-yl) -phenylamino]-pyrimidin-4-yl}-1-methyl-urea and salts thereof” (Novartis AG, priority 2009, dated 2015):
Counter-ions that a name gives are not always drawn.

Legend:
Format in all cases: physicochemical
[1] = Determination of solubility (equilibration in solvent, filtrate by HPLC); conditions: for Solubility: initial solubility test
Procedure: Excess free base (free base of Formula I), its phosphate salt (the monophosphoric acid salt of the free base), or another acid salt was equilibrated in solvents for 1 day at 25±0.5° C. The resultant slurry was filtered and the filtrate used for solubility determination by HPLC.
Solubility of the monohydrate of the anhydrous and monohydrate free base was measured in various aqueous media (e.g., pH 6.8 buffer, pH 4.5 buffer, pH 1 buffer), including simulated and actual human fluids.
The human fluids were collected from 12 human subjects.
Solubility studies of the phosphate salt were undertaken in aqueous media and in human fluids at 24 hours.

[2] = Hygroscopicity from DVS sorption/desorption isotherms; conditions: for weight gain due to water absorption (DVS): listed as hydrochloride salt
Procedure: Hygroscopicity was measured from sorption/desorption isotherms using Surface Measurement System DVS-1 at 25±0.5° C. Samples were evaluated at various humidities including 75%, 85%, and 95%.
The free base (anhydrous and monohydrate) and its phosphate salt (form A) were subjected to sorption and desorption cycle using a VTI brand instrument. The solids were collected after the experiment and analyzed. […] The DVS plots are shown in FIGS. 4A (free base, anhydrous), 4B (phosphate salt (form A) and 4C (free base, monohydrate). The maximum water uptake for the phosphate salt (form A) was less than 2% (i.e. 0.7%) at 25° C. up to 95% relative humidity (rh) (see Table 9). The maximum water uptake for the monohydrate was less than 1.4% at 25° C. up to 95% RH. The monohydrate with an approximate water content of 3% could not be completely dried during the experiment but the water that could be removed was reversibly reabsorbed. The plateau of existence of the monohydrate form is found to be within 10% and 95% RH with a slight hysteresis at the second desorption cycle.

[3] = Intrinsic dissolution rate; conditions: 37° C., disc 50 rpm, 290.2 nm
Procedure: The intrinsic dissolution rate measurements were carried out in 0.5 cm^2 VanKel punch and die assemblies at a pellet pressure of 2000 pounds. […]
The intrinsic dissolution rate was determined for the phosphate salt in water, pH=6.8 and 0.1N HCl, and for the free base monohydrate in pH=6.8, 4.5 and 0.1N HCl. The measurements were carried out on a VanKel instrument using a Cary UV/VIS spectrophotometer (Table 2).

Molecule: CCN1CCN(c2ccc(Nc3cc(N(C)C(=O)Nc4c(Cl)c(OC)cc(OC)c4Cl)ncn3)cc2)CC1 [Hydrochloride Salt]
- Solubility in mg/ml after 24 h ([1]; Fasted State Simulated Intestinal Fluid (FaSSIF)): 0.003 mg/mL
- Solubility in mg/ml after 24 h ([1]; Fed State Simulated Intestinal Fluid (FeSSIF)): 0.248 mg/mL
- Solubility in mg/ml after 24 h ([1]; HIF, fed): 0.0109 mg/mL
- Solubility in mg/ml after 24 h ([1]; Human gastric fluid (HGF)): 0.0348 mg/mL
- Solubility in mg/ml after 24 h ([1]; Human intestinal fluid (HIF) fasted): 0.0154 mg/mL
- Solubility in mg/ml after 24 h ([1]; Simulated Gastric Fluid (SGF)): 0.073 mg/mL
- Solubility in mg/ml after 24 h ([1]; pH 1 HCl): 0.075 mg/mL
- Solubility in mg/ml after 24 h ([1]; ph 4.5 Acetate): 0.822 mg/mL
- weight gain due to water absorption (DVS) ([2]; 75% RH): about 4.1%
- weight gain due to water absorption (DVS) ([2]; 95% RH): about 16.9%
- hygroscopicity (in words) ([2]; listed as hydrochloride): hygroscopic

Molecule: CCN1CCN(c2ccc(Nc3cc(N(C)C(=O)Nc4c(Cl)c(OC)cc(OC)c4Cl)ncn3)cc2)CC1 [Free base (monohydrate)]
- Intrinsic DR value ([3]; HCl 0.1N): 0.3132 mg/min/cm^2
- Intrinsic DR value ([3]; pH = 4.5): 0.0001 mg/min/cm^2
- Intrinsic DR value ([3]; pH = 6.8): 0.0026 mg/min/cm^2
- Solubility in mg/ml after 24 h ([1]; Fasted State Simulated Intestinal Fluid (FaSSIF), listed as Monohydrate Free Base): 0.003 mg/mL
- Solubility in mg/ml after 24 h ([1]; Fed State Simulated Intestinal Fluid (FeSSIF), listed as Monohydrate Free Base): 0.459 mg/mL
- Solubility in mg/ml after 24 h ([1]; HIF, fed, listed as Monohydrate Free Base): 0.040 mg/mL
- Solubility in mg/ml after 24 h ([1]; Human gastric fluid (HGF), listed as Monohydrate Free Base): 0.002 mg/mL
- Solubility in mg/ml after 24 h ([1]; Human intestinal fluid (HIF) fasted, listed as Monohydrate Free Base): 0.019 mg/mL
- Solubility in mg/ml after 24 h ([1]; Simulated Gastric Fluid (SGF), listed as Monohydrate Free Base): 0.020 mg/mL
- Solubility in mg/ml after 24 h ([1]; pH 1 HCl, listed as Monohydrate Free Base): 0.103 mg/mL
- Solubility in mg/ml after 24 h ([1]; ph 4.5 Acetate, listed as Monohydrate Free Base): 0.054 mg/mL
- maximum water uptake ([2]; 25° C. up to 95% relative humidity): less than 1.4%

Molecule: Malonate
- weight gain by DVS ([2]; over the humidities tested (75%, 85%, 95% RH)): about 10%

Molecule: Methanesulfonate
- Solubility ([1]; Water): 870 µg/mL
- Solubility ([1]; pH3 Buffer): 3 µg/mL
